Experimental data published in publication PMC11396129, “Oxindole–benzothiazole hybrids as CDK2 inhibitors and anticancer agents: design, synthesis and biological evaluation” (BMC Chemistry, 2024).

How the values were obtained:
Type in all cases: cell-based, human
HT29 = experiment: NCI 60 panel growth inhibition (SRB), colon cancer; conditions: HT29, 10 μM
Summary of the method: (§1)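 Two-stage NCI process: single-dose screen, then five-concentration testing of selected compounds. Growth relative to time-zero and untreated controls was derived from SRB absorbance, and TGI from the concentration giving Ti = Tz.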

MDA-MB-435 = experiment: NCI 60 panel growth inhibition (SRB), melanoma; conditions: MDA-MB-435, 10 μM
Summary of the method: as §1

SK-MEL-2 = experiment: NCI 60 panel growth inhibition (SRB), melanoma; conditions: SK-MEL-2, 10 μM
Summary of the method: as §1

IGROV1 = experiment: NCI 60 panel growth inhibition (SRB), ovarian cancer; conditions: IGROV1, 10 μM
Experimental: (§2) Screening of cytotoxic activity against a panel of sixty human tumor cell lines The selected compounds by NCI were evaluated for their anticancer activity in a two- stage process. […] Then, the output from the single dose screen is reported as a mean graph. […] Assay protocol. […] For a typical screening experiment, cells are inoculated into 96 well microtiter plates in 100 µL at plating densities ranging from 5000 to 40,000 cells/well depending on the doubling time of individual cell lines. […] After 24 h, two plates of each cell line are fixed in situ with TCA, to represent a measurement of the cell population for each cell line at the time of drug addition (Tz). The experimental drugs are solubilized in dimethyl sulfoxide at 400-fold the desired final maximum test concentration and stored frozen prior to use. At the time of drug addition, an aliquot of frozen concentrate is thawed and diluted to twice the desired final maximum test concentration with complete medium containing 50 µg/mL gentamicin. Additional four, 10-fold or ½ log serial dilutions are made to provide a total of five drug concentrations plus control. […] For adherent cells, the assay is terminated by the addition of cold TCA. […] The supernatant is discarded, and the plates are washed five times with tap water and air dried. […] Using the seven absorbance measurements [time zero, (Tz), control growth, (C), and test growth in the presence of drug at the five concentration levels (Ti)], the percentage growth is calculated at each of the drug concentrations levels. Percentage growth inhibition is calculated as: [(Ti Tz)/(C–Tz)] x 100 for concentrations for which Ti>/=Tz and [(Ti-Tz)/Tz] x 100 for concentrations for which Ti < Tz. Three dose response parameters are calculated for each experimental agent. […] The drug concentration resulting in total growth inhibition (TGI) is calculated from Ti = Tz. […] Values are calculated for each of these three parameters if the level of activity is reached; however, if the effect is not reached or is exceeded, the value for that parameter is expressed as greater or less than the maximum or minimum concentration tested.

NCI/ADR-RES = experiment: as above; conditions: 10 μM
Experimental: as §2

OVCAR-3 = experiment: as above; conditions: OVCAR-3, 10 μM
Experimental: as §2

OVCAR-4 = experiment: as above; conditions: OVCAR-4, 10 μM
Experimental: as §2

OVCAR-5 = experiment: as above; conditions: OVCAR-5, 10 μM
Experimental: as §2

OVCAR-8 = experiment: as above; conditions: OVCAR-8, 10 μM
Experimental: as §2

A498 = experiment: NCI 60 panel growth inhibition (SRB), renal cancer; conditions: A498, 10 μM
Experimental: as §2

ACHN = experiment: NCI 60 panel growth inhibition (SRB), renal cancer; conditions: 10 μM
Experimental: as §2

CAKI-1 = experiment: NCI 60 panel growth inhibition (SRB), renal cancer; conditions: CAKI-1, 10 μM
Experimental: as §2

RXF 393 = experiment: NCI 60 panel growth inhibition (SRB), renal cancer; conditions: RXF 393, 10 μM
Experimental: as §2

SN12C = experiment: NCI 60 panel growth inhibition (SRB), renal cancer; conditions: 10 μM
Experimental: as §2

TK-10 = experiment: NCI 60 panel growth inhibition (SRB), renal cancer; conditions: TK-10, 10 μM
Experimental: as §2

UO-31 = experiment: NCI 60 panel growth inhibition (SRB), renal cancer; conditions: UO-31, 10 μM
Experimental: as §2

DU-145 = experiment: NCI 60 panel growth inhibition (SRB), prostate cancer; conditions: DU-145, 10 μM
Experimental: as §2

PC-3 = experiment: as above; conditions: PC-3, 10 μM
Experimental: as §2

BT-549 = experiment: NCI 60 panel growth inhibition (SRB), breast cancer; conditions: BT-549, 10 μM
Experimental: as §2

HS 578T = experiment: as above; conditions: 10 μM
Experimental: as §2

MCF7 = experiment: as above; conditions: MCF7, 10 μM
Experimental: as §2

MDA-MB-231/ATCC = experiment: as above; conditions: 10 μM
Experimental: as §2

MDA-MB-468 = experiment: as above; conditions: MDA-MB-468, 10 μM
Experimental: as §2

[1] = test system: NCI 60 cancer cell line panel; experiment: NCI 60 panel growth inhibition (SRB), whole panel; conditions: mean over NCI 60 panel, 10 μM
Experimental: as §2

786-0 = experiment: NCI 60 panel growth inhibition (SRB), renal cancer; conditions: 786-0, 10 μM
Experimental: as §2

SK-OV-3 = experiment: NCI 60 panel growth inhibition (SRB), ovarian cancer; conditions: SK-OV-3, 10 μM
Experimental: as §2

T-47D = experiment: NCI 60 panel growth inhibition (SRB), breast cancer; conditions: 10 μM
Experimental: as §2

| Structure (SMILES) | GI% (HT29) | GI% (MDA-MB-435) | GI% (IGROV1) | GI% (NCI/ADR-RES) [%] | GI% (OVCAR-3) | GI% (OVCAR-4) | GI% (OVCAR-5) | GI% (OVCAR-8) | GI% (A498) | GI% (ACHN) [%] | GI% (CAKI-1) [%] | GI% (RXF 393) | GI% (SN12C) [%] | GI% (TK-10) | GI% (UO-31) | GI% (DU-145) | GI% (BT-549) | GI% (MCF7) [%] | GI% (MDA-MB-231/ATCC) [%] | GI% (MDA-MB-468) | further results |
| --- | --- | --- | --- | --- | --- | --- | --- | --- | --- | --- | --- | --- | --- | --- | --- | --- | --- | --- | --- | --- | --- |
| COc1ccc(-c2nc3ccccc3s2)cc1OCC(=O)NN=C1C(=O)Nc2ccccc21 [Compound 9m, 2-(5-(Benzo[d]thiazol-2-yl)-2-methoxyphenoxy)-N′-(2-oxoindolin-3-ylidene) acetohydrazide] | – (GI% < 5%) | – (GI% < 5%) | – (GI% < 5%) | 28.96 | – (GI% < 5%) | 16.50% | – (GI% < 5%) | 20.84% | – (GI% < 5%) | 19.82 | 9.28 | – (GI% < 5%) | 7.15 | 10.32% | – (GI% < 5%) | 5.42% | – (GI% < 5%) | 33.97 | 9.78 | 8.24% | GI% (SK-MEL-2): – (GI% < 5%); GI% (PC-3): 7.63%; GI% (HS 578T): – (GI% < 5%); Mean GI% [1]: 6.03% |
| COc1ccc(-c2nc3ccccc3s2)cc1OCC(=O)NN=C1C(=O)Nc2ccc(Br)cc21 [Compound 9r, 2-(5-(Benzo[d]thiazol-2-yl)-2-methoxyphenoxy)-N′-(5-bromo-2-oxoindolin-3-ylidene)acetohydrazide] | – (GI% < 5%) | – (GI% < 5%) | – (GI% < 5%) | 27.04 | – (GI% < 5%) | – (GI% < 5%) | – (GI% < 5%) | 38.56% | – (GI% < 5%) | 30.78 | 29.61 | 15.08% | 20.61 | 36.32% | 15.64% | – (GI% < 5%) | 21.16% | 35.42 | 42.55 | – (GI% < 5%) | GI% (SK-MEL-2): 17.63%; GI% (786-0): 20.37%; GI% (PC-3): 16.13%; GI% (HS 578T): 46.81%; Mean GI% [1]: 10.08% |
| CNC(=O)c1nn(C)c2c1C(C)(C)Cc1cnc(Nc3ccc(N4CCN(C)CC4)cc3)nc1-2 [Milciclib, reference compound] | 116.2% | 78.9% | 97.50% | 90.10 | 79.30% | 87.10% | 90.90% | 91.10% | 161.60% | 90.4 | 92.30 | 148.20% | 88.70 | 112.5% | 108.7% | 84.50% | 94.80% | 89.60 | 85.30 | 113.40% | GI% (SK-OV-3): 116.90%; GI% (786-0): 87.70%; GI% (PC-3): 92.10%; GI% (T-47D): 105.70%; Mean GI% [1]: > 100%; Mean GI% ([1]; listed as milciclib): more than 100% |
| COc1ccc(-c2nc3ccccc3s2)cc1OCC(=O)NN=C1C(=O)Nc2ccc([N+](=O)[O-])cc21 [Compound 9p, 2-(5-(Benzo[d]thiazol-2-yl)-2-methoxyphenoxy)-N′-(5-nitro-2-oxoindolin-3-ylidene)acetohydrazide] | – (GI% < 5%) | – (GI% < 5%) | 41.60% | 19.93 | – (GI% < 5%) | 13.06% | – (GI% < 5%) | 38.18% | 20.06% | 76.97 | 45.22 | 99.84% | 37.68 | 96.63% | 19.08% | – (GI% < 5%) | 54.51% | 17.21 | 49.20 | 17.86% | GI% (SK-MEL-2): 115.65%; GI% (786-0): 87.35%; GI% (PC-3): 11.94%; GI% (HS 578T): 96.22%; Mean GI% [1]: 30.34% |
| COc1ccc(-c2nc3ccccc3s2)cc1OCC(=O)NN=C1C(=O)Nc2ccc(Cl)cc21 [Compound 9q, 2-(5-(Benzo[d]thiazol-2-yl)-2-methoxyphenoxy)-N′-(5-chloro-2-oxoindolin-3-ylidene)acetohydrazide] | 6.74% | 37.37% | 16.12% | 47.55 | 31.89% | 25.24% | – (GI% < 5%) | 59.73% | – (GI% < 5%) | 59.32 | 50.03 | 32.76% | 36.67 | 62.99% | 20.65% | 19.41% | 23.63% | 57.82 | 59.98 | – (GI% < 5%) | GI% (SK-MEL-2): 56.54%; GI% (786-0): 44.24%; GI% (PC-3): 26.21%; GI% (HS 578T): 74.27%; Mean GI% [1]: 31.16% |
| O=C(COc1ccccc1-c1nc2ccccc2s1)NN=C1C(=O)Nc2ccc(Cl)cc21 [Compound 9e, 2-(2-(Benzo[d]thiazol-2-yl)phenoxy)-N′-(5-chloro-2-oxoindolin-3-ylidene)acetohydrazide] | – (GI% < 5%) | – (GI% < 5%) | – (GI% < 5%) | 6.89 | – (GI% < 5%) | – (GI% < 5%) | – (GI% < 5%) | – (GI% < 5%) | – (GI% < 5%) | 18.45 | 6.21 | – (GI% < 5%) | 8.28 | – (GI% < 5%) | – (GI% < 5%) | – (GI% < 5%) | – (GI% < 5%) | 15.86 | 15.59 | 5.76% | GI% (SK-MEL-2): – (GI% < 5%); GI% (SK-OV-3): – (GI% < 5%); GI% (786-0): – (GI% < 5%); GI% (HS 578T): – (GI% < 5%); GI% (T-47D): – (GI% < 5%) |
